Measured values from patent publication US5635516A, “(Thia) cycloalkyl[B]indole compounds as anti-inflammatory agents” (Adir et Compagnie, priority 1994, dated 1997).

Assays:
[1] = test system: phorbol 12-myristate-13-acetate induced ear swelling; assay: Acute cutaneous inflammation in mice (phorbol 12-myristate-13-acetate test); assay type: in vivo; settings: Mus musculus; topical on ears of mice 30 minutes before phorbol 12-myristate-13-acetate; swelling of the ear at 6 hours
Procedure: In the following test, the measurements were carried out on groups of five mice. The tests on the groups of control mice are carried out at the same time as those on the groups of mice which have received the test compounds.
5 μg of phorbol 12-myristate-13-acetate in 20 μl of an ethanol/water mixture (8:2) are applied to the front and rear surfaces of the right ears of the mice, 30 minutes after the application in a similar manner of the test compounds or of the vehicle (2×20 μl at 5-minute intervals in absolute alcohol). The swelling of the ear is measured 6 hours later with the aid of a Dyer micrometer. That measurement is used as the inflammation index.

[2] = test system: 5-lipoxygenase; assay: LTB4 production by rabbit granulocytes stimulated in vitro by A 23187 (enzyme immunoassay); assay type: cell-based; settings: 10-^7 M
Source text: (§1) The object of this study is to determine the effects of compounds of the invention on the lipoxygenase and cyclo-oxygenase activities of rabbit granulocytes stimulated in vitro by A 23187, by measuring the levels of PGE2 and LTB4 thus liberated by means of an enzyme immunoassay (EIA). The granulocytes are isolated from rabbit blood collected from the main artery of the ear according to the method described by Trush et al. (1978). They are suspended, at a density of 10^6 cells/cm^3, in a phosphate buffer (mM): NaCl: 137; KCl: 2.68; Na2 HPO4 : 8.1; KH2 PO4 : 1.47; CaCl2 : 0.9; MgCl2 : 0.5 The freshly obtained granulocytes are pre-incubated for a period of 15 minutes at 37° C. in the presence of the test products. The results are expressed as percentages of the positive control. The values are presented as the mean±s.e.m. of three measurements carried out on the same day, for the "screening" study, and of three measurements carried out on three different days for the IC50 study. The IC50 values and the Hill number values (Hn) are determined by modelling using the Hill equation.

[3] = test system: cyclo-oxygenase; assay: PGE2 production by rabbit granulocytes stimulated in vitro by A 23187 (enzyme immunoassay); assay type: cell-based; settings: 10-^7 M
Source text: as §1

IC50 [1] [µM] | inhibition of the production of LTB4 [2] | effect on the production of PGE2 [3] | SMILES
15 | – | – | O=C(O)Cn1c2c(c3cc(OCc4ccc5ccccc5n4)ccc31)CCCCCC2 [Example 4, 2-{3-[(QUINOL-2-YL)METHYLOXY]-5,6,7,8,9,10,11-HEPTAHYDRO-CYCLOOCT[b]INDOLE}ACETIC ACID]
20 | completely | without reducing | CCOC(=O)Cn1c2c(c3cc(OCc4ccc5ccccc5n4)ccc31)CCCCCC2 [Example 2]
